Test results: patent US4307036A, “Method for preparing a mixture of stereoisomers of α-cyano-3-phenoxybenzyl 2-(4-substituted-phenyl)isovalerates” (Sumitomo Chemical Company, Limited, priority 1978, dated 1981)
In brackets after ≈: the same amount, converted by molar mass.

Assays:
[1] = tested on: Houseflies (Musca domestica Linne); assay: Spray test of difluoromethoxy esters on housefly (Test Example 6 A); assay type: in vivo
Protocol: (§1) Insecticidal activity of α-cyano-3-phenoxybenzyl 2-(4-difluoromethoxyphenyl)isovalerates on housefly, pea aphid and corn earworm
A. Housefly: Houseflies (Musca domestica Linne) were tested by placing 50 4- to 5-day old houseflies into spray cages and spraying with 0.6 ml of a solution of test compound. After spraying, the flies were anesthetized with CO2 and transferred to a recovery cage containing a milk pad for food. The cages were held for 18-20 hours after which mortality counts were made. Both dead and moribund were counted. The tests were conducted employing several different dosage rates of each test compound.
(§2) In each instance, the toxicity of the compound of the invention was compared to that of a standard pesticide (Parathion), its relative toxicity then being expressed in terms of the relationship between the amount of compound of the invention and the amount of the standard pesticide required to produce the same percentage (50) of mortality in the test insects or acarine. By assigning the standard pesticide an arbitrary rating of 100, the toxicities of the compounds of the invention were expressed in terms of the toxicity indexes, which compares the toxicity of the compounds of the invention with that of the standard pesticide.

[2] = tested on: Pea aphids (Acyrthosiphon pisum Harris); assay: Spray test of difluoromethoxy esters on pea aphid (Test Example 6 B); assay type: in vivo
Protocol: as §1
B. Pea Aphid: Pea aphids (Acyrthosiphon pisum Harris) were tested by placing about 100 aphids on broad bean plants. The plants were sprayed with dilutions of acetone solution of test compound into water containing an emulsifier and held in containers under laboratory conditions for 18 to 20 hours at which time the living aphids in the containers were counted. The tests were conducted employing several different dosage rates of each test compound.
as §2

[3] = tested on: Corn earworm larvae (Heliothis zea Boddie); assay: Spray test of difluoromethoxy esters on corn earworm larvae (Test Example 6 C); assay type: in vivo
Protocol: as §1
C. Corn Earworm: Corn earworm larvae (Heliothis zea Boddie) were tested by spraying broad bean plants with dilutions of acetone solution of test compound into water containing an emulsifier. Immediately after spraying, 5 larvae were transferred to each plant and held for 44-46 hours, at which time the dead and moribund larvae were counted. The tests were conducted employing several different dosage rates for each test compound.
as §2

[4] = tested on: housefly (Musca domestica); assay: Insecticidal activity of methoxy and ethoxy esters on housefly, topical application, 24 h (Test Example 8); assay type: in vivo; settings: CSMA-strain female adults, 0.5 μl to ventral thorax
Protocol: Insecticidal activity of S phenylisovalerates (methoxy and ethoxy esters) on housefly (Musca domestica)
(§3) Each of S phenylisovalerate Y's and Y-rich S phenylisovalerates obtained in Examples 21 to 24 and common racemates was diluted with acetone to a pre-determined concentration, and 0.5 μl of the solution was applied to the ventral thorax of CSMA-strain housefly female adults by means of a microsyringe. The adults were then liberated in a plastic cup (diameter 11 cm) wherein a bait (3% sugar water) was placed. The dead and alive were examined after 24 hours, and the values of LD50 were obtained.

[5] = tested on: tobacco cut worm (Spodoptera litura); assay: Insecticidal activity of fenvalerates on tobacco cut worm, leaf dip, 24 h (Test Example 1); assay type: in vivo; settings: for Relative Efficacy: Activity of Fenvalerate (common product) was taken as 100; for LC50 (concentration required for 50% death) / LC50: fourth instar larvae, 24 hours, 20% emulsifiable concentrate diluted; for LC50 (concentration required for 50% death): 1440 min; for LC50: Spodoptera litura, foliar, 24 h, read-out: LC50 (concentration required for 50% death)
Source text: Insecticidal activity of fenvalerates on tobacco cut worm (Spodoptera litura)
Fenvalerate Y obtained in Example 4, fenvalerate Y-rich fenvalerate obtained in Examples 5 and 6 and common fenvalerate were formulated into a 20% emulsifiable concentrate as usual (Composition: above pesticide 20%; xylene 70%; and Sorpol 3005X (a registered trademark of Toho Kagaku Co.) 10%). These emulsifiable concentrates were each diluted with water to a pre-determined concentration, and mixed with a spreader (Shin-Rino, a registered trademark of Nippon Noyaku Co.) of 3,000 times by weight based on the diluted liquor.
(§4) The dried leaves were placed in a plastic cup (diameter 10 cm, height 4 cm) at a rate of 2 leaves/cup, and the fourth instar larvae of tobacco cut worms were liberated therein. The dead and alive were examined after 24 hours and the values of LC50 (concentration required for 50% death) were obtained.
(§5) Experiments of three replications were carried out using 10 larvae per group.

[6] = Insecticidal and acaricidal activity, general statements; assay type: in vivo; settings: diastereomers separated by recrystallization from hexane
[7] = tested on: tobacco cut worm (Spodoptera litura); assay: Insecticidal activity of difluoromethoxy esters on tobacco cut worm, leaf dip, 24 h (Test Example 7); assay type: in vivo; settings: foliar, read-out: LC50 (concentration required for 50% death)
Source text: Insecticidal activity of α-cyano-3-phenoxybenzyl 2-(4-difluoromethoxyphenyl)isovalerates on tobacco cut worm (Spodoptera litura)
Emulsifiable concentrates of difluoromethoxy ester Y and Y-rich difluoromethoxy ester formulated according to Preparation Example 12 and a 20% emulsifiable concentrate of common difluoromethoxy ester formulated in the same manner were each diluted with water to a predetermined concentration, and mixed with a spreader (Shin-Rino, a registered trademark of Nippon Noyaku Co.) of 3,000 times by weight based on the diluted liquor.
as §4, §5

[8] = tested on: housefly (Musca domestica); assay: Insecticidal activity of fenvalerates on housefly, topical application, 24 h (Test Example 2); assay type: in vivo; settings: for Relative Efficacy: Activity of Fenvalerate (common product) was taken as 100; for LD50: CSMA-strain female adults, 0.5 μl to ventral thorax, 24 hours
Protocol: Insecticidal activity of fenvalerates on housefly (Musca domestica)
as §3, with “pesticide used” for “of S phenylisovalerate Y's and Y-rich S phenylisovalerates obtained”, “4” for “21 to 24”, “5” for “common racemates”

[9] = Solubility, general statement; assay type: physicochemical; settings: compared with fenvalerate Aα
[10] = reported in literature; cited from earlier work
[11] = Parathion = 100, 50% mortality, 18-20 hours, * High Knockdown
[12] = Parathion = 100, 50% mortality, 18 to 20 hours, * High Knockdown
[13] = Parathion = 100, 50% mortality, 44-46 hours, * High Knockdown
[14] = fourth instar larvae, 24 hours, emulsifiable concentrate diluted

## CC(C)[C@H](C(=O)O[C@H](C#N)c1cccc(Oc2ccccc2)c1)c1ccc(OC(F)F)cc1 (relative stereo) [Same, Y Isomer Pair, α-cyano-3-phenoxybenzyl 2-(4-difluoromethoxyphenyl)isovalerate]
[1]; in vivo
  Toxicity Index: 1100
[2]; in vivo
  Toxicity Index: 1273
[3]; in vivo
  Toxicity Index: 1544

## COc1ccc(C(C(=O)OC(C#N)c2cccc(Oc3ccccc3)c2)C(C)C)cc1 (racemic) [Common Methoxy Ester (racemate), α-cyano-3-phenoxybenzyl 2-(4-methoxyphenyl)isovalerate]
[4]
  LD50: 0.35 μg/housefly

## CC(C)C(C(=O)OC(C#N)c1cccc(Oc2ccccc2)c1)c1ccc(Cl)cc1 (stereo not shown) [Example 6]
[5]
  Relative Efficacy: 125
  LC50 (concentration required for 50% death): 5.9 ppm

## CCOc1ccc(C(C(=O)OC(C#N)c2cccc(Oc3ccccc3)c2)C(C)C)cc1 (racemic) [Common Ethoxy Ester (racemate), α-cyano-3-phenoxybenzyl 2-(4-ethoxyphenyl)isovalerate]
[4]
  LD50: 0.54 μg/housefly

## C#CC(OC(=O)C(c1ccc(Cl)cc1)C(C)C)c1cccc(Oc2ccccc2)c1 (stereo not drawn) [diastereomer (m.p. 51°-52° C.), α-ethynyl-3-phenoxybenzyl 2-(4-chlorophenyl)isovalerate]
[6]
  insecticidal activity: higher insecticidal activity

## CC(C)C(C(=O)OC(C#N)c1cccc(Oc2ccccc2)c1)c1ccc(OC(F)F)cc1 (racemic) [Common Difluoromethoxy Ester, α-cyano-3-phenoxybenzyl 2-(4-difluoromethoxyphenyl)isovalerate]
[1]; [11]
  Toxicity Index: 219
[2]; [12]
  Toxicity Index: 582
[3]; [13]
  Toxicity Index: 773
[7]; [14]
  LC50: 23 µg/mL (≈ 50.9 µM)

## CC(C)C(C(=O)OC(C#N)c1cccc(Oc2ccccc2)c1)c1ccc(Cl)cc1 (stereo not shown) [Example 5]
[5]
  Relative Efficacy: 172
  LC50: 4.3 µg/mL (≈ 10.2 µM)
[8]
  Relative Efficacy: 172
  LD50: 0.018 μg/housefly

## CC(C)C(C(=O)OC(C#N)c1cccc(Oc2ccccc2)c1)c1ccc(Cl)cc1 (stereo not drawn) [Fenvalerate (common product), α-Cyano-3-phenoxybenzyl 2-(4-chlorophenyl)isovalerate, reference compound]
[5]
  Relative Efficacy: 100
  LC50 (concentration required for 50% death): 7.4 ppm
[8]
  Relative Efficacy: 100
  LD50: 0.031 μg/housefly

## C#CC(OC(=O)C(c1ccc(Cl)cc1)C(C)C)c1cccc(Oc2ccccc2)c1 (stereo not drawn) [diastereomer having a melting point of 87° to 88° C., α-ethynyl-3-phenoxybenzyl 2-(4-chlorophenyl)isovalerate]
[6]
  insecticidal activity: very weak insecticidal activity

## COc1ccc([C@@H](C(=O)O[C@H](C#N)c2cccc(Oc3ccccc3)c2)C(C)C)cc1 (relative stereo) [Methoxy Ester Y, α-cyano-3-phenoxybenzyl 2-(4-methoxyphenyl)isovalerate]
[4]
  LD50: 0.17 μg/housefly

## CC(C)C(C(=O)OC(C#N)c1cccc(Oc2ccccc2)c1)c1ccc(OC(F)F)cc1 (stereo not drawn) [Y-Rich Difluoromethoxy Ester, α-cyano-3-phenoxybenzyl 2-(4-difluoromethoxyphenyl)isovalerate]
[7]; [14]
  LC50: 14 µg/mL (≈ 31 µM)

## CCOc1ccc([C@@H](C(=O)O[C@H](C#N)c2cccc(Oc3ccccc3)c2)C(C)C)cc1 (relative stereo) [Ethoxy Ester Y, α-cyano-3-phenoxybenzyl 2-(4-ethoxyphenyl)isovalerate]
[4]
  LD50: 0.28 μg/housefly

## CC(C)[C@H](C(=O)O[C@H](C#N)c1cccc(Oc2ccccc2)c1)c1ccc(Cl)cc1 (relative stereo) [fenvalerate Y]
[9]
  solubilities: greater than those of fenvalerate Aα
[10]
  insecticidal and acaricidal activity: highly active pesticide

## CCOc1ccc(C(C(=O)OC(C#N)c2cccc(Oc3ccccc3)c2)C(C)C)cc1 (stereo not drawn) [Y-Rich Ethoxy Ester, α-cyano-3-phenoxybenzyl 2-(4-ethoxyphenyl)isovalerate]
[4]
  LD50: 0.46 μg/housefly

## COc1ccc(C(C(=O)OC(C#N)c2cccc(Oc3ccccc3)c2)C(C)C)cc1 (stereo not drawn) [Y-Rich Methoxy Ester, α-cyano-3-phenoxybenzyl 2-(4-methoxyphenyl)isovalerate]
[4]
  LD50: 0.20 μg/housefly

## CC(C)[C@H](C(=O)O[C@@H](C#N)c1cccc(Oc2ccccc2)c1)c1ccc(OC(F)F)cc1 (relative stereo) [Same, X Isomer Pair, α-cyano-3-phenoxybenzyl 2-(4-difluoromethoxyphenyl)isovalerate]
[1]; [11]
  Toxicity Index: 47
[2]; [12]
  Toxicity Index: 45
[3]; [13]
  Toxicity Index: 106

## CC(C)[C@H](C(=O)O[C@H](C#N)c1cccc(Oc2ccccc2)c1)c1ccc(Cl)cc1 (relative stereo) [Example 4]
[5]
  Relative Efficacy: 195
  LC50: 3.8 µg/mL (≈ 9.05 µM)
[8]
  Relative Efficacy: 207
  LD50: 0.015 μg/housefly

## CC(C)[C@H](C(=O)O[C@H](C#N)c1cccc(Oc2ccccc2)c1)c1ccc(OC(F)F)cc1 (relative stereo) [Difluoromethoxy Ester Y, α-cyano-3-phenoxybenzyl 2-(4-difluoromethoxyphenyl)isovalerate]
[7]; 24 h
  LC50: 12 µg/mL (≈ 26.6 µM)

## CC(C)[C@H](C(=O)O[C@H](C#N)c1cccc(Oc2ccccc2)c1)c1ccc(Cl)cc1 [fenvalerate Aα, (S)-α-cyano-3-phenoxybenzyl (S)-2-(4-substituted-phenyl)isovalerate]
[10]
  insecticidal and acaricidal activity: the most active stereoisomer of the four
